Experimental data reported in US20060264494A1, “Heterocyclic amide derivatives which process glycogen phorylase inhibitory activity” (AstraZeneca AB, priority 2003, published 2006).
Converted amounts (≈) assume the structure as drawn. Like-named read-outs stand apart in the source and are kept apart here. Values belong to the molecule of their own block, whether it stands above or below them.

Legend:
[1] = thermodynamic solubility; assay type: physicochemical; details: 0.1 M phosphate buffer, pH 7.4, aqueous buffer, thermodynamic from solid, 0.1 M phosphate at pH7.4 for 24 hours
[2] = target: T1, Human recombinant liver glycogen phosphorylase a (hrl GPa) (Homo sapiens, UniProt P06737); experiment: glycogen phosphorylase inhibition, multienzyme coupled assay; assay type: biochemical
T1 sequence (P06737 1-847): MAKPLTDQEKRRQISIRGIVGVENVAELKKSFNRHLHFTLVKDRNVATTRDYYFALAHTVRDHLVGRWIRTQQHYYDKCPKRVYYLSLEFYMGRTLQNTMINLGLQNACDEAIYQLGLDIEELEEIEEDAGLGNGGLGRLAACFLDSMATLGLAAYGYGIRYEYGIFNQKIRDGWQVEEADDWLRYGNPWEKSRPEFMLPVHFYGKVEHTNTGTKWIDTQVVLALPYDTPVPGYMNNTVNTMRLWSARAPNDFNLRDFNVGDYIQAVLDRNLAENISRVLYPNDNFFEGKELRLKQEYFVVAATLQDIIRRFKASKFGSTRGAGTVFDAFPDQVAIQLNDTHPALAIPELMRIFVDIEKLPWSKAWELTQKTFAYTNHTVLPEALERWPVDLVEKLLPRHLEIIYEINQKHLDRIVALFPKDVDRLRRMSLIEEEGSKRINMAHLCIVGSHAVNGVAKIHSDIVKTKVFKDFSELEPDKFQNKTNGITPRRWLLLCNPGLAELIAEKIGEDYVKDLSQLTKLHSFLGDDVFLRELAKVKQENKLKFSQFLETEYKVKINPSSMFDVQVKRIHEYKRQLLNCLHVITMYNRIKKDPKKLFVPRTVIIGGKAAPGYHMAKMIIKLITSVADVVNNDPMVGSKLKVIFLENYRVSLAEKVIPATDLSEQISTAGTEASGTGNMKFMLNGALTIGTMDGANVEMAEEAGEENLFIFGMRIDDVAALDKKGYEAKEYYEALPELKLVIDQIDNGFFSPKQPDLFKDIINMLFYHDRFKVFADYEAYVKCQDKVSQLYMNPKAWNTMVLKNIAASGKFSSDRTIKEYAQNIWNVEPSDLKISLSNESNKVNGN
Protocol: The activity of the compounds is determined by measuring the inhibitory effect of the compounds on glycogen degradation, the production of glucose-1-phosphate from glycogen is monitored by the multienzyme coupled assay, as described in EP 0 846 464 A2, general method of Pesce et al (Pesce, M A, Bodourian, S H, Harris, R C, and Nicholson, J F (1977) Clinical Chemistry 23, […]). The reactions were in 384 well microplate format in a volume of 50 μl. The change in fluorescence due to the conversion of the co-factor NAD to NADH is measured at 340 nm excitation, 465 nm emission in a Tecan Ultra Multifunctional Microplate Reader. The reaction is in 50 mM HEPES, 3.5 mM KH2PO4, 2.5 mM MgCl2, 2.5 mM ethylene glycol-bis(b-aminoethyl ether) N,N,N′,N′-tetraacetic acid, 100 mM KCl, 8 mM D-(+)-glucose pH7.2, containing 0.5 mM dithiothreitol, the assay buffer solution. Human recombinant liver glycogen phosphorylase a (hrl GPa) 20 nM is pre-incubated in assay buffer solution with 6.25 mM NAD, 1.25 mg type III glycogen at 1.25 mg ml^−1 the reagent buffer, for 30 minutes. The coupling enzymes, phosphoglucomutase and glucose-6-phosphate dehydrogenase (Sigma) are prepared in reagent buffer, final concentration 0.25 Units per well. 20 μl of the hrl GPa solution is added to 10 μl compound solution and the reaction started with the addition of 20 μl coupling enzyme solution. Compounds to be tested are prepared in 10 μl 5% DMSO in assay buffer solution, with final concentration of 1% DMSO in the assay. The non-inhibited activity of GPa is measured in the presence of 10 μl 5% DMSO in assay buffer solution and maximum inhibition measured in the presence of 5 mgs ml^−1 N-ethylmaleimide. After 6 hours at 30° C. Relative Fluoresence Units (RFUs) are measured at 340 nm excitation, 465 nm emission.
The assay is performed at a test concentration of inhibitor of 10 μM or 100 μM.

[3] = conscious dogs, following a glucagon challenge; cited from earlier work
[4] = tested on: hepatocytes; details: cited from earlier work
[5] = db/db and ob/ob mice; dose related; cited from earlier work
[6] = hrl GPa 20 nM, 6 hours at 30° C., read-out: Activity (μM) IC50

solubility at 24 h [1]: 1.4 µM (≈ 0.591 µg/mL) | IC50 [2, 6]: ~0.4 µM
Molecule: CC(=O)N(C)[C@@H]1c2ccccc2C[C@H]1NC(=O)c1cc2sc(Cl)c(Cl)c2[nH]1 [Reference Eg 1]

IC50 ([2]; text b160, read-out: IC50): 0.265 µM
Molecule: COCC(=O)N(C)[C@@H]1c2ccccc2C[C@H]1NC(=O)c1cc2cc(Cl)sc2[nH]1 [Example 1, 2-Chloro-N-{(1R,2R)-1-[(methoxyacetyl)(methyl)amino]-2,3-dihydro-1H-inden-2-yl}-6H-thieno[2,3-b]pyrrole-5-carboxamide]

Molecule: 2-Chloro-N-{(1R,2R)-1-[[(2S)-2,3-dihydroxypropanoyl](methyl)amino]-2,3-dihydro-1H-inden-2-yl}-6H-thieno[2,3-b]pyrrole-5-carboxamide [Example 8]
IC50 [2, 6]: 0.07 µM | IC50 ([2]; text b160, unit printed as nm, read-out: IC50): 0.176 µM

solubility at 24 h [1]: 50 µM | IC50 [2, 6]: 0.11 µM
Molecule: CN(C(=O)[C@@H](N)CO)[C@@H]1c2ccccc2C[C@H]1NC(=O)c1cc2sc(Cl)c(Cl)c2[nH]1.Cl [Example 27, 2,3-Dichloro-N-{(1R,2R)-1-[methyl(L-seryl)amino]-2,3-dihydro-1H-inden-2-y}-4H-thieno[3,2-b]pyrrole-5-carboxamide hydrochloride]

Molecule: CCN1C(C)=C(C(=O)OC(C)C)C(c2ccccc2Cl)C2=C1COC2=O (stereo not drawn) [Bay R 3401]
arterial plasma glucose [3]: reduced significantly | hepatic glucose output [3]: reduced significantly

Molecule: CN(C)C(=O)[C@H](O)[C@H](Cc1ccccc1)NC(=O)c1cc2cc(Cl)ccc2[nH]1 [CP91149]
glucagon stimulated glycogenolysis [4]: reduce | glucose output in hepatocytes [4]: reduce | plasma glucose concentration [5]: reduced

Molecule: O=C(N[C@@H](Cc1ccc(F)cc1)C(=O)N1CCC(O)CC1)c1cc2cc(Cl)ccc2[nH]1 [CP320626]
glucagon stimulated glycogenolysis [4]: reduce | glucose output in hepatocytes [4]: reduce | plasma glucose concentration [5]: reduced
